From US9060991B2, “Use of GLP-1 analogues for the treatment of disorders associated with dysfunctional synaptic transmission” (Innovation Ulster Limited, priority 2007, dated 2015)
Where no end group is shown, it is not given here.

Experiments:
Type in all cases: in vivo, Male Wistar rats
[1] = test system: long-term potentiation of synaptic transmission (EPSP slope, CA1 region of hippocampus); assay: LTP in hippocampal CA1 after icv GLP-1 peptides, weak HFS protocol; conditions: 15 nmol in 5 μl icv, LTP induced 30 min post-injection (time not given for FIG. 3A)
Source text: (§1) Male Wistar rats weighing 220-280 g were anaesthetised with urethane (ethyl carbamate, 1.8 g/kg, intraperitoneal, (i.p.)) for the duration of all experiments. The animals had been obtained from Harlan, United Kingdom (UK). A cannula (22 gauge, 0.7 mm outer diameter, 11 mm in length, Bilaney, Kent, UK) was implanted (1.5 mm anterior to bregma, 0.5 mm lateral to the midline and 3.55 mm ventral) into the left hemisphere for intracerebroventricular (icv) injections. Electrodes (tungsten with Teflon® coating, Bilaney, Kent, UK) were implanted unilaterally 3.4 mm posterior and 2.5 mm lateral to the midline, and the stimulating electrode 4.2 mm posterior to bregma and 3.8 mm lateral to the midline. […] Recordings of EPSPs were made from the stratum radiatum in the CA1 region of the right hippocampal hemisphere in response to stimulation of the Schaffer collateral/commissural pathway. Field EPSPs were recorded on a computerised stimulating and recording unit (PowerLab, ADI instruments, UK) in which the trigger threshold was adjustable. The triggered unit activated a constant current stimulus isolation unit (Neurolog, UK). The data acquisition system was triggered simultaneously to record all events. Sampling speed was at 20 kHz recording of EPSPs.
(§2) The ‘strong’ high frequency stimulation (HFS) protocol for inducing long-term potentiation (LTP) consisted of 3 trains of 200 stimuli, inter-stimulus interval 5 ms (200 Hz), inter-train interval 2 sec. […] The ‘weak’ HFS protocol for inducing LTP consisted of 10 trains of 10 stimuli, inter-stimulus interval 5 ms (200 Hz). The strong HFS was used to test the effects of peptides that impair LTP (beta-amyloid), and the weak HFS was used to test peptides that facilitate LTP. In this form of LTP, the control group is not potentiated at a maximal rate, and LTP can decay slowly over time. Stimulation intensity was 70% of the maximum EPSP. LTP was measured as % of baseline EPSP slope recorded over a 30 min period prior to drug injection and 60 min prior to application of HFS. Baseline was recorded for 30 min and averaged. This value was taken as 100% of the EPSP slope and all recoded values were normalised to this baseline value. All experiments were licensed according to UK Home Office regulations, and the “Principles of laboratory animal care” (NIH publication No. 86-23, revised 1985) were followed.
Beta-amyoid (25-35) and other peptides used in this study were synthesised on an Applied Biosystems automated peptides synthesiser (Model 432A) using standard solid-phase Fmoc protocols. Peptides were judged pure by reversed phase HPLC on a waters Millenium 2010 chromatography system, and peptides were subsequently characterised using matrix-assisted laser desorption/ionisation time of flight (MALDI-TOF) mass spectrometry as described previously (Gengler et al., 2006; Hölscher et al., 2007). Peptides were stored in dry form and dissolved in double distilled water before the experiments. 5 μl of peptides solution was injected icv.
(§3) Each group consisted of 6 animals. Data were analysed using a repeated measures two-way ANOVA, or a repeated measures three level two-way ANOVA with post-hoc tests to discriminate between groups (PRISM, GraphPad software Inc; USA). […]
Male Wistar rats were icv injected with either vehicle (Control,) or 15 nmol Val(8)GLP-1 (♦). LTP was induced 30 min post-injection using the HFS (weak protocol), and the change in EPSP assessed and graphed to represent the change in LTP (FIG. 3B). […]

[2] = test system: long-term potentiation of synaptic transmission (EPSP slope, CA1 region of hippocampus); assay: Val(8)GLP-1 against beta-amyloid(25-35)-induced impairment of LTP; conditions: for impairing effect of beta-amyloid on LTP: LTP induced 15 min post-βA injection
Source text: as §1, §2
Beta-amyoid (25-35) and other peptides used in this study were synthesised on an Applied Biosystems automated peptides synthesiser (Model 432A) using standard solid-phase Fmoc protocols. […]
as §3

[3] = test system: long-term potentiation of synaptic transmission (EPSP slope, CA1 region of hippocampus); assay: LTP in hippocampal CA1 after icv beta-amyloid(25-35), strong HFS protocol; conditions: LTP induced 15 min post-injection, control = scrambled peptide
Source text: Male Wistar rats weighing 220-280 g were anaesthetised with urethane (ethyl carbamate, 1.8 g/kg, intraperitoneal, (i.p.)) for the duration of all experiments. The animals had been obtained from Harlan, United Kingdom (UK). A cannula (22 gauge, 0.7 mm outer diameter, 11 mm in length, Bilaney, Kent, UK) was implanted (1.5 mm anterior to bregma, 0.5 mm lateral to the midline and 3.55 mm ventral) into the left hemisphere for intracerebroventricular (icv) injections. Electrodes (tungsten with Teflon® coating, Bilaney, Kent, UK) were implanted unilaterally 3.4 mm posterior and 2.5 mm lateral to the midline, and the stimulating electrode 4.2 mm posterior to bregma and 3.8 mm lateral to the midline. […] Field EPSPs were recorded on a computerised stimulating and recording unit (PowerLab, ADI instruments, UK) in which the trigger threshold was adjustable. […]
The ‘strong’ high frequency stimulation (HFS) protocol for inducing long-term potentiation (LTP) consisted of 3 trains of 200 stimuli, inter-stimulus interval 5 ms (200 Hz), inter-train interval 2 sec. […] LTP was measured as % of baseline EPSP slope recorded over a 30 min period prior to drug injection and 60 min prior to application of HFS. Baseline was recorded for 30 min and averaged. […]
LTP was induced 15 min post-injection using the HFS (strong protocol), and the change in EPSP assessed and graphed to represent the change in LTP (FIG. 2). […]

Q: “Asp(7)GLP-1: analogue of human GLP-1 with Asp at position 7, SEQ ID NO: 3 (DAEGTFTSDVSSYLEGQAAKEFIAWLVKGR; Synthetic peptide analogue derived from human GLP-1)” was tested. Which “effect on LTP (change in EPSP) versus control” value [1] did it give?
A: Its value is “enhanced long-term potentiation (LTP) compared with control”.

Q: How did the “effect on LTP (change in EPSP) versus control” value [1] turn out when “GLP-1(7-36)amide: the natural hormone GLP-1(7-36)amide (HAEGTFTSDVSSYLEGQAAKEFIAWLVKGR-NH2; listed as Homo sapiens) [reference compound]” was run?
A: Its value is “difference between the GLP-1(7-36)amide group and control”.

Q: With GLP-1(9-36)amide [reference compound] as the substance, how does the “effect on LTP (change in EPSP) versus control” value [1] read?
A: Its value is “no difference between the GLP-1(9-36)amide group and the control group”.

Q: “Pro(9)GLP-1: analogue of human GLP-1 with Pro at position 9, SEQ ID NO: 5 (HAPGTFTSDVSSYLEGQAAKEFIAWLVKGR; Synthetic peptide analogue derived from human GLP-1)” was tested. Which “effect on LTP (change in EPSP) versus control” value [1] did it give?
A: The value was “enhanced long-term potentiation (LTP) compared with control”.

Q: Which results are given for “Val(8)GLP-1: analogue of human GLP-1 with Val at position 8, SEQ ID NO: 4”?
A: effect on LTP (change in EPSP) versus control [1]: can enhance the induction of LTP; impairing effect of beta-amyloid on LTP ([2]; Val(8)GLP-1 15 nmol icv 15 min before beta-amyloid(25-35) 100 nmol icv): not significantly affected, but a trend became visible; impairing effect of beta-amyloid on LTP ([2]; Val(8)GLP-1 15 nmol icv 30 min before beta-amyloid(25-35) 100 nmol icv): completely reversed; impairing effect of beta-amyloid on LTP ([2]; Val(8)GLP-1 15 nmol icv simultaneously with beta-amyloid(25-35) 100 nmol icv): not affected

Q: For “βA(25-35): beta-amyloid fragment 25-35, peptide that impairs LTP (GSNKGAIIGLM; Amyloid-beta protein 42; UniProt P05067 696-706, looked up, fragment)”, which “effect on LTP (change in EPSP) versus control” value ([3]; 10 nmol icv) is on record?
A: The value was “difference between the 10 nmol group and control”.

Q: And the “effect on LTP (change in EPSP) versus control” value ([3]; 100 nmol icv)?
A: The value was “difference between the 100 nmol group and control”.

Q: What about the “effect on LTP (change in EPSP) versus vehicle control” value ([2]; beta-amyloid(25-35) alone, 100 nmol icv, LTP induced 15 min post-injection, FIG. 4A-4C experiments) of the same substance?
A: Its value is “difference between the beta-amyloid(25-35) group and control”.
